Measured values: PMC2694832, “Pharmacokinetics, tissue distribution and mass balance of radiolabeled dihydroartemisinin in male rats” (Malaria Journal, 2009)

Test: Tissue distribution of [^14C] DHA
Type: in vivo, rats
Conditions: for Distribution of radioactivity / % of total AUC / Half-lives of radioactivity / Tissue AUC of radioactivity / % total recovery: male rats i.v. 3 mg/20 μCi/kg; for % total recovery: all measured tissues
Protocol: Rats treated with a single [^14C] DHA dose of 3 mg/20 μCi/kg intravenously (5 rats per group) were anesthaetized by isofluorane and euthanized via cardiac puncture at 1, 6, 24, 48, 72, 96, and 192 hours, post-dosing. Blood, liver, brain, eyes, adrenals, muscle, lungs, heart, liver, kidneys, spleen, stomach, small intestine, large intestine, perirenal fat and bone marrow samples were removed from each animal by gross dissection. The gastrointestinal tract (GI) was separated into the stomach (oesophagus and stomach), small intestine, and large intestine. Contents were procured from each GI segment. After flushing with saline, these and other tissues were stored. Tissues were rinsed gently, but thoroughly with water to remove remaining traces of blood before storage. Dissecting instruments were also washed between tissue procurements to avoid cross-contamination.
For most of the tissues 20% (w/w) aqueous homogenates of the tissue were prepared. Aqueous homogenates of the faecal and GI content samples were also prepared. Metabolism cages were washed with a solution of 2% Count-off® and the volume was measured. Radioactivity in the plasma samples and in aliquots (approx. 0.02–1.0 ml) of urine and cage washings was determined. The blood cells (primarily erythrocytes), perirenal fat (approx. 0.2 g), bone marrow samples (approx. 0.1 ml), and approximately 300-μl aliquots of the homogenates of faeces, liver, kidneys, heart, brain, stomach and carcass were solubilized with SolvableTM tissue solubilizer (Perkin-Elmer Life and Analytical Sciences, Boston, MA). The homogenates of faeces, stomach content, and intestinal contents were extracted with 50% methanol for 24 hours. Aliquots of blood and pooled urine samples from selected intervals were also analysed for DHA content directly.
Total radioactivity in the collected tissue samples were quantified in duplicate. Weighed tissue aliquots (~0.2 g) were digested overnight in 2 ml of Solvable® tissue solubilizer (Perkin-Elmer Life and Analytical Sciences, Boston, MA) at 50°C. Coloured samples were decolourized by adding a maximum of 0.2 ml of 30% H2O2 for 30–60 minutes. Scintillation cocktail (Hyonic Fluor; Perkin-Elmer Boston. Massachusetts, USA) was then added and radioactivity determined in a Perkin-Elmer Tri-Carb 3100 TR scintillation spectrophotometer (Packard Instrument Co., Downers Grove, Illinois, USA). Faeces and intestinal contents were thoroughly homogenized before taking aliquots. Plasma was also analysed using the HPLC-ECD system to measure the concentration of unchanged DHA, as described by Li et al.

## C[C@@H]1CC[C@H]2[C@@H]([14CH3])C(O)O[C@@H]3O[C@@]4(C)CC[C@@H]1[C@]32OO4 (stereo partly drawn) [[^14C] DHA, [16-^14C] DHA]
Lungs, 24 hr
  Distribution of radioactivity: 398.52 ng equivalents/tissue gram
Lungs, 48 hr
  Distribution of radioactivity: 305.34 ng equivalents/tissue gram
Lungs, 72 hr
  Distribution of radioactivity: 303.10 ng equivalents/tissue gram
Lungs, 96 hr
  Distribution of radioactivity: 236.70 ng equivalents/tissue gram
Lungs, 192 hr
  Distribution of radioactivity: 221.64 ng equivalents/tissue gram
Lungs
  % of total AUC: 2.03%
  Half-lives of radioactivity: 86.19 ± 18.00 h
  Tissue AUC of radioactivity: 85,916 ng·hr/g
Lungs, listed as [^14C]-dihydroartemisinin
  Tissue AUC of radioactivity: 85916 ± 12999 ng·h/g
Muscle
  % of total AUC: 0.86%
  Half-lives of radioactivity: 64.45 ± 13.54 h
  Tissue AUC of radioactivity: 36371 ± 6994 ng·h/g
Plasma, 1 hr
  Distribution of radioactivity: 591.34 ng equivalents/tissue gram
Plasma, 6 hr
  Distribution of radioactivity: 540.83 ng equivalents/tissue gram
Plasma, 24 hr
  Distribution of radioactivity: 216.03 ng equivalents/tissue gram
Plasma, 48 hr
  Distribution of radioactivity: 93.02 ng equivalents/tissue gram
Plasma
  % of total AUC: 0.49%
  Tissue AUC of radioactivity: 20750 ± 1031 ng·h/g
Plasma, listed as [^14C]-dihydroartemisinin
  Half-lives of radioactivity: 75.57 ± 7.34 h
SI Content, 1 hr
  Distribution of radioactivity: 46426.85 ng equivalents/tissue gram
SI Content, 6 hr
  Distribution of radioactivity: 11387.30 ng equivalents/tissue gram
SI Content, 24 hr
  Distribution of radioactivity: 2283.61 ng equivalents/tissue gram
SI Content, 48 hr
  Distribution of radioactivity: 633.61 ng equivalents/tissue gram
SI Content, 72 hr
  Distribution of radioactivity: 575.05 ng equivalents/tissue gram
SI Content, 96 hr
  Distribution of radioactivity: 176.57 ng equivalents/tissue gram
SI Content, 192 hr
  Distribution of radioactivity: 250.03 ng equivalents/tissue gram
SI Content
  % of total AUC: 35.25%
  Half-lives of radioactivity: 28.73 ± 9.05 h
  Tissue AUC of radioactivity: 1492988 ± 63053 ng·h/g
Small intestine (SI), 1 hr
  Distribution of radioactivity: 8155.95 ng equivalents/tissue gram
Small intestine (SI), 6 hr
  Distribution of radioactivity: 3014.58 ng equivalents/tissue gram
Small intestine (SI), 24 hr
  Distribution of radioactivity: 821.84 ng equivalents/tissue gram
Small intestine (SI), 48 hr
  Distribution of radioactivity: 335.42 ng equivalents/tissue gram
Small intestine (SI), 72 hr
  Distribution of radioactivity: 389.72 ng equivalents/tissue gram
Small intestine (SI), 96 hr
  Distribution of radioactivity: 235.61 ng equivalents/tissue gram
Small intestine (SI), 192 hr
  Distribution of radioactivity: 304.12 ng equivalents/tissue gram
Small intestine (SI)
  % of total AUC: 3.10%
  Half-lives of radioactivity: 49.99 ± 34.89 h
  Tissue AUC of radioactivity: 131,264 ng·hr/g
Small intestine (SI), listed as [^14C]-dihydroartemisinin
  Tissue AUC of radioactivity: 131264 ± 24631 ng·h/g
Spleen, 1 hr
  Distribution of radioactivity: 4,387 ng equivalents/tissue gram
Spleen, 1 hr, listed as [^14C]-dihydroartemisinin
  Distribution of radioactivity: 4387.40 ng equivalents/tissue gram
Spleen, 6 hr
  Distribution of radioactivity: 3,685 ng equivalents/tissue gram
Spleen, 6 hr, listed as [^14C]-dihydroartemisinin
  Distribution of radioactivity: 3684.97 ng equivalents/tissue gram
Spleen, 24 hr
  Distribution of radioactivity: 3,061 ng equivalents/tissue gram
Spleen, 24 hr, listed as [^14C]-dihydroartemisinin
  Distribution of radioactivity: 3061.40 ng equivalents/tissue gram
Spleen, 48 hr
  Distribution of radioactivity: 4,216 ng equivalents/tissue gram
Spleen, 48 hr, listed as [^14C]-dihydroartemisinin
  Distribution of radioactivity: 4216.03 ng equivalents/tissue gram
Spleen, 72 hr
  Distribution of radioactivity: 4446.65 ng equivalents/tissue gram
Spleen, 96 hr
  Distribution of radioactivity: 4464.57 ng equivalents/tissue gram
Spleen, 192 hr
  Distribution of radioactivity: 5,170 ng equivalents/tissue gram
Spleen, 192 hr, listed as [^14C]-dihydroartemisinin
  Distribution of radioactivity: 5170.22 ng equivalents/tissue gram
Spleen
  % of total AUC: 14.58%
  Half-lives of radioactivity: 114.02 ± 57.67 h
  Tissue AUC of radioactivity: 617,495 ng·hr/g
Spleen, listed as [^14C]-dihydroartemisinin
  Tissue AUC of radioactivity: 617495 ± 410768 ng·h/g
Stomach Content, 1 hr
  Distribution of radioactivity: 36.03 ng equivalents/tissue gram
Stomach Content, 6 hr
  Distribution of radioactivity: 6289.79 ng equivalents/tissue gram
Stomach Content, 24 hr
  Distribution of radioactivity: 22.45 ng equivalents/tissue gram
Stomach Content, 48 hr
  Distribution of radioactivity: 98.12 ng equivalents/tissue gram
Stomach Content, 72 hr
  Distribution of radioactivity: 18.69 ng equivalents/tissue gram
Stomach Content, 96 hr
  Distribution of radioactivity: 11.76 ng equivalents/tissue gram
Stomach Content, 192 hr
  Distribution of radioactivity: 343.37 ng equivalents/tissue gram
Stomach Content
  % of total AUC: 0.53%
  Half-lives of radioactivity: 16.75 ± 16.30 h
  Tissue AUC of radioactivity: 22362 ± 98089 ng·h/g
Stomach, 1 hr
  Distribution of radioactivity: 1366.22 ng equivalents/tissue gram
Stomach, 6 hr
  Distribution of radioactivity: 932.33 ng equivalents/tissue gram
Stomach, 24 hr
  Distribution of radioactivity: 464.21 ng equivalents/tissue gram
Stomach, 48 hr
  Distribution of radioactivity: 342.30 ng equivalents/tissue gram
Stomach, 72 hr
  Distribution of radioactivity: 337.48 ng equivalents/tissue gram
Stomach, 96 hr
  Distribution of radioactivity: 229.69 ng equivalents/tissue gram
Stomach, 192 hr
  Distribution of radioactivity: 218.27 ng equivalents/tissue gram
Stomach
  % of total AUC: 1.94%
  Half-lives of radioactivity: 72.58 ± 12.98 h
  Tissue AUC of radioactivity: 82125 ± 13428 ng·h/g
Testis, 1 hr
  Distribution of radioactivity: 624.14 ng equivalents/tissue gram
Testis, 6 hr
  Distribution of radioactivity: 513.53 ng equivalents/tissue gram
Testis, 24 hr
  Distribution of radioactivity: 176.47 ng equivalents/tissue gram
Testis, 48 hr
  Distribution of radioactivity: 155.78 ng equivalents/tissue gram
Testis, 72 hr
  Distribution of radioactivity: 151.29 ng equivalents/tissue gram
Testis, 96 hr
  Distribution of radioactivity: 123.54 ng equivalents/tissue gram
Testis, 192 hr
  Distribution of radioactivity: 141.04 ng equivalents/tissue gram
Testis
  Tissue AUC of radioactivity: 48249 ± 6078 ng·h/g
Testis, listed as [^14C]-dihydroartemisinin
  Half-lives of radioactivity: 86.24 ± 40.68 h
Total Amounts line
  Half-lives of radioactivity: 69.03 ± 22.13 h
  Tissue AUC of radioactivity: 4234952.00 ng·h/g
1 hr
  % total recovery: 34.57%
6 hr
  % total recovery: 34.10%
24 hr
  % total recovery: 8.51%
48 hr
  % total recovery: 6.50%
72 hr
  % total recovery: 6.28%
96 hr
  % total recovery: 4.51%
192 hr
  % total recovery: ~5.53%
Throughout the period measured, rats i.v. 3 mg/20 μCi/kg
  radioactivity in whole blood higher than in plasma: 1.8–4.6 fold
Within the first hour after i.v. dosing, rats
  total radioactivity found in the content of small intestine: 53–86%
